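Following 48 hours of exposure in 96-well plates, responses at five concentrations were used to interpolate endpoints linearly. GI50 marks 50% less growth.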 The source made the active and inactive calls. Cut-off read from the data, not from the text of the source: active = GI50 up to about 1.1 µM and inactive = higher.
Experiments:
Test in all cases: DTP human tumour cell line panel, 48 h
[1] = test system: COLO 205
[2] = test system: TK-10
[3] = test system: Malme-3M
[4] = test system: KM12
[5] = test system: HT-29
[6] = test system: OVCAR-4
[7] = test system: DLD-1
[8] = test system: SF-295
[9] = test system: SK-MEL-28
[10] = test system: K562
[11] = test system: HCT-15
[12] = test system: HOP-62
[13] = test system: OVCAR-3
[14] = test system: U-251
[15] = test system: OVCAR-5
[16] = test system: HCT-116
[17] = test system: IGROV-1
[18] = test system: DMS-114
[19] = test system: CAKI-1
[20] = test system: HOP-92
[21] = test system: HCC 2998
[22] = test system: SK-MEL-5
[23] = test system: RPMI-8226
[24] = test system: M19-MEL
[25] = test system: NCI-H23
[26] = test system: XF498
[27] = test system: 786-0
[28] = test system: SK-OV-3
[29] = test system: M14
[30] = test system: SF-268
[31] = test system: SNB-19
[32] = test system: UO-31
[33] = test system: SNB-78
[34] = test system: HL-60
[35] = test system: SR
[36] = test system: OVCAR-8
[37] = test system: HOP-18
[38] = test system: SF-539
[39] = test system: RXF 393
[40] = test system: MOLT-4
[41] = test system: SK-MEL-2
[42] = test system: EKVX
[43] = test system: UACC-62
[44] = test system: A498
[45] = test system: NCI-H226
[46] = test system: SW-620
[47] = test system: NCI-H460
[48] = test system: SNB-75
[49] = test system: KM-20L2
[50] = test system: SN12C
[51] = test system: DMS-273
[52] = test system: CCRF-CEM
[53] = test system: LOX IMVI
[54] = test system: UACC-257
[55] = test system: LXFL 529
[56] = test system: ACHN
[57] = test system: NCI-H522
[58] = test system: A549

Compound: O=C(O)CCCCCCC[C@H]1S[C@H]1CCCCCCO
- GI50 [1]: > 100 µM (inactive)
- GI50 [2]: > 100 µM (inactive)
- GI50 [3]: > 100 µM (inactive)
- GI50 [4]: > 100 µM (inactive)
- GI50 [5]: > 100 µM (inactive)
- GI50 [6]: > 100 µM (inactive)
- GI50 [7]: > 100 µM (inactive)
- GI50 [8]: > 100 µM (inactive)
- GI50 [9]: > 100 µM (inactive)
- GI50 [10]: > 100 µM (inactive)
- GI50 [11]: > 100 µM
- GI50 [12]: > 100 µM (inactive)
- GI50 [13]: > 100 µM (inactive)
- GI50 [14]: > 100 µM (inactive)
- GI50 [15]: > 100 µM (inactive)
- GI50 [16]: > 100 µM (inactive)
- GI50 [17]: > 100 µM (inactive)
- GI50 [18]: > 100 µM (inactive)
- GI50 [19]: > 100 µM (inactive)
- GI50 [20]: < 0.01 µM (active)
- GI50 [21]: > 100 µM (inactive)
- GI50 [22]: > 100 µM (inactive)
- GI50 [23]: > 100 µM (inactive)
- GI50 [24]: > 100 µM (inactive)
- GI50 [25]: > 100 µM (inactive)
- GI50 [26]: > 100 µM (inactive)
- GI50 [27]: > 100 µM (inactive)
- GI50 [28]: > 100 µM (inactive)
- GI50 [29]: > 100 µM (inactive)
- GI50 [30]: > 100 µM (inactive)
- GI50 [31]: > 100 µM (inactive)
- GI50 [32]: > 100 µM (inactive)
- GI50 [33]: > 100 µM (inactive)
- GI50 [34]: > 100 µM (inactive)
- GI50 [35]: > 100 µM (inactive)
- GI50 [36]: > 100 µM (inactive)
- GI50 [37]: > 100 µM (inactive)
- GI50 [38]: > 100 µM (inactive)
- GI50 [39]: > 100 µM (inactive)
- GI50 [40]: > 100 µM (inactive)
- GI50 [41]: > 100 µM (inactive)
- GI50 [42]: > 100 µM (inactive)
- GI50 [43]: > 100 µM (inactive)

Compound: COc1cc2c(c(OC)c1OC)-c1ccc(SC)c(=O)cc1[C@@H](NC(=O)c1ccc(F)cc1)CC2
- GI50 [44]: 0.0399 µM (active)
- GI50 [45]: 0.0381 µM (active)
- GI50 [1]: 0.0206 µM (active)
- GI50 [46]: 0.0306 µM (active)
- GI50 [2]: 0.0515 µM (active)
- GI50 [3]: 0.0615 µM (active)
- GI50 [4]: 0.0217 µM (active)
- GI50 [47]: 0.0344 µM (active)
- GI50 [5]: 0.0318 µM (active)
- GI50 [6]: 6.59 µM (inactive)
- GI50 [7]: 0.0423 µM (active)
- GI50 [8]: 0.0327 µM (active)
- GI50 [9]: 15.2 µM (inactive)
- GI50 [10]: 0.0284 µM (active)
- GI50 [48]: 0.07 µM (active)
- GI50 [49]: 0.0233 µM (active)
- GI50 [12]: 0.0621 µM (active)
- GI50 [13]: 0.0183 µM (active)
- GI50 [50]: 0.0384 µM (active)
- GI50 [14]: 0.0428 µM (active)
- GI50 [15]: 48.1 µM (inactive)
- GI50 [51]: < 0.01 µM (active)
- GI50 [16]: 0.0416 µM (active)
- GI50 [52]: < 0.01 µM (active)
- GI50 [17]: 0.0594 µM (active)
- GI50 [20]: 0.0281 µM (active)
- GI50 [21]: 0.0284 µM (active)
- GI50 [53]: 0.0501 µM (active)
- GI50 [23]: 0.0498 µM (active)
- GI50 [24]: 0.0409 µM (active)
- GI50 [25]: 0.0417 µM (active)
- GI50 [26]: 0.049 µM (active)
- GI50 [27]: 0.0488 µM (active)
- GI50 [28]: 0.0294 µM (active)
- GI50 [29]: 0.0378 µM (active)
- GI50 [30]: 0.0455 µM (active)
- GI50 [54]: < 0.01 µM (active)
- GI50 [32]: < 0.01 µM (active)
- GI50 [33]: 0.055 µM (active)
- GI50 [55]: 0.0356 µM (active)
- GI50 [34]: < 0.01 µM (active)
- GI50 [56]: 0.0467 µM (active)
- GI50 [57]: < 0.01 µM (active)
- GI50 [36]: 0.053 µM (active)
- GI50 [38]: 0.0283 µM (active)
- GI50 [40]: 0.0601 µM (active)
- GI50 [41]: 0.0407 µM (active)
- GI50 [42]: 0.0461 µM (active)
- GI50 [43]: 0.0454 µM (active)

Compound: Cn1cc(C2(C)CC(C)(C)c3c2n(C)c2ccccc32)c2ccccc21 (stereo not drawn)
- GI50 [44]: > 100 µM (inactive)
- GI50 [45]: 90.2 µM (inactive)
- GI50 [1]: > 100 µM (inactive)
- GI50 [46]: > 100 µM (inactive)
- GI50 [2]: > 100 µM (inactive)
- GI50 [3]: > 100 µM (inactive)
- GI50 [4]: 94 µM (inactive)
- GI50 [47]: > 100 µM (inactive)
- GI50 [5]: 49.8 µM (inactive)
- GI50 [7]: > 100 µM (inactive)
- GI50 [8]: > 100 µM (inactive)
- GI50 [9]: > 100 µM (inactive)
- GI50 [10]: 83.8 µM (inactive)
- GI50 [48]: > 100 µM (inactive)
- GI50 [49]: > 100 µM (inactive)
- GI50 [11]: > 100 µM
- GI50 [12]: > 100 µM (inactive)
- GI50 [13]: 64 µM (inactive)
- GI50 [50]: > 100 µM (inactive)
- GI50 [14]: > 100 µM (inactive)
- GI50 [51]: > 100 µM (inactive)
- GI50 [52]: 92.7 µM (inactive)
- GI50 [17]: > 100 µM (inactive)
- GI50 [18]: 59.6 µM (inactive)
- GI50 [19]: > 100 µM (inactive)
- GI50 [20]: > 100 µM (inactive)
- GI50 [21]: 52.4 µM (inactive)
- GI50 [22]: 69.3 µM (inactive)
- GI50 [53]: > 100 µM (inactive)
- GI50 [23]: 40.2 µM (inactive)
- GI50 [24]: > 100 µM (inactive)
- GI50 [25]: 95.3 µM (inactive)
- GI50 [26]: 81.1 µM (inactive)
- GI50 [27]: > 100 µM (inactive)
- GI50 [28]: > 100 µM (inactive)
- GI50 [29]: > 100 µM (inactive)
- GI50 [30]: > 100 µM (inactive)
- GI50 [54]: > 100 µM (inactive)
- GI50 [31]: > 100 µM (inactive)
- GI50 [32]: 92.7 µM (inactive)
- GI50 [33]: > 100 µM (inactive)
- GI50 [55]: > 100 µM (inactive)
- GI50 [57]: 40.3 µM (inactive)
- GI50 [36]: > 100 µM (inactive)
- GI50 [38]: > 100 µM (inactive)
- GI50 [39]: 32.5 µM (inactive)
- GI50 [40]: 42.4 µM (inactive)
- GI50 [41]: > 100 µM (inactive)
- GI50 [42]: > 100 µM (inactive)
- GI50 [58]: > 100 µM (inactive)
- GI50 [43]: > 100 µM (inactive)

— ChEMBL document CHEMBL1201862, “PubChem BioAssay data set” (2004)
